Entries after “also recorded” stand apart in the source; their conditions may differ.
Assays:
[1] = system: A549 cells; assay: Cytotoxic activity: change in confluence of A549 cells over time (IncuCyte); assay type: cell-based
Method: We grew lung epithelial A549 cells in RPMI 1640 medium containing 25 mM HEPES, 1% L-glutamine, 10% fetal bovine serum and added 1% penicillin-streptomycin for prevention of bacterial contamination of cell cultures. We seeded the cells in 96-well plates (TPP, Trasadingen, Switzerland) with 10′000 cells per well, in a total volume of 50 uL per well. We placed the plates in the IncuCyte Zoom imaging system (Essen Bioscience, Ann Arbor, MI, USA) placed inside of an incubator set to 37° C. and 5% CO2 and monitored the growth of the cell by monitoring the change in confluence over time. We seeded the cells and left them to adhere and replicate for 20 h before adding the templated CtxA-DNA assemblies or native CtxA as control. We then measured the cell confluence every 2 h. To estimate the effect of the different peptide assemblies on the change in confluence over time, we fitted the observed confluence levels after peptide addition linearly.

[2] = Planar lipid bilayer single channel recordings of CtxA and flexible-template CtxA-DNA assemblies; assay type: biochemical
Method: The lipid composition for the bilayers consisted of POPC, DOPE and POPS with a 7:3:1 (w/w) ratio (PC/PE/PS) or for the origami structures in diphytanoyl phosphatidylcholine (DiPhyPC). We dissolved the resulting lipid mixture in pentane (total lipid concentration: 10 mg/mL). The buffered electrolyte solution consisted of 1M NaCl, 10 mM HEPES, pH 7.4 or 3M CsCl, 10 mM HEPES, pH 7.4 in 30% glycerol.
We designed Teflon chambers with one big compartment (containing a maximum volume of 1.5 mL) and one small compartment (containing a maximum volume of 200 μL). We pretreated Teflon films (Eastern Scientific LLC, Rockville, MD) with apertures of 50 μm by pipetting 1 μL of pre-treatment solution—hexadecane in hexane 2.5% (v/v)—onto both sides of the aperture of the Teflon film. We then mounted the Teflon film in a Teflon chamber using high-vacuum grease (Dow Corning Corporation), separating the two compartments of the Teflon chamber. The only connection between the compartments was the aperture in the Teflon film over which we formed virtually solvent-free planar lipid bilayers using the technique described by Montal and Mueller^10. Briefly, we added electrolyte solution to both compartments (1.2 mL in the bigger compartment and 160 μL for the smaller one) and spread 1-2 μL of lipid solution onto the surface of the buffered electrolyte solution. After the solvent evaporated, a lipid monolayer (Langmuir film) formed at the air-water interface. […] We then thinned the membrane by lowering and raising the electrolyte solution in one compartment, until we measured a capacitance of 60±10 pF. To monitor capacitance, we applied a triangular voltage and the capacitance was either calculated by the amplifier or determined visually using the manual capacitance compensation of the amplifier. Prior to adding the peptide, we checked the stability of the bilayer (absence of leak currents, expected noise level) by applying transmembrane voltages of up to 200 mV for 5 min at both polarities. We used one of two different amplifiers, an EPC7 (HEKA Instruments Inc., Holliston, MA, USA) or a BC-535 (Warner Instruments Hamden, CT, USA)) and connected both compartments to the amplifier through two Ag/AgCl pellet electrodes (Warner Instruments Hamden, CT, USA). We placed the Teflon chambers inside Faraday cages, on BM4 vibration isolation platforms (Minus K® Technology, Inc., Inglewood, CA, USA). We carried out all experiments at room temperature (22±1° C.) and tested all setups with different model cells to confirm proper functionality of the amplifiers and function generators. We sampled currents at 50 kHz and low-pass 10 kHz. We analysed data using OriginLab (OriginLab Corporation, Northampton, MA, USA) and pClamp (Molecular Devices, Sunnyvale, CA, USA) software.
We performed the experiments with the peptide-DNA hybrid in two different ways: (i) we added all components sequentially—ssDNA-CtxA first, then the template strands, one after the other—or (ii) we mixed the ssDNA-CtxA with the spacer strand (with or without cholesterol) and the template strand in a DNA LoBind tube (Eppendorf Tubes, Hamburg, Germany) and let them react overnight at room temperature (pre-incubation experiments). We also performed the pre-incubation experiments with and without HPLC-SEC purification. In the case of unpurified assemblies, we added the DNA-modified peptides and the spacer strand stoichiometrically and then added the n-mer template (with n equal to 4, 6 or 8) at a ratio of 1 mole for n moles of DNA-modified peptide. When purifying the assemblies, we added the peptide-DNA monomers in excess compared to the template strand (at least 5 n moles of peptide for 1 mol of n-mer template) and removed the excess monomers using HPLC-SEC purification (Agilent SEC 3 column, 300 mm, […], 4.6 mm internal diameter). We then stored the collected assemblies at +4° C. for later use and add the spacer strand in excess prior to the experiment. […]

[3] = applied potential difference of +180 mV

For “Ceratotoxin A (SIGSALKKALPVAKKIGKIALPIAKAALPVAAGLVG) [Native CtxA]”, the “Concentration necessary to reduce cell viability” value [1] was 50 to 100 µM, the “Total CtxA concentration sufficient to completely stop replication of the cells” value [1] was 100 µM and the “Minimum concentration to display significant / frequent pore formation” value [2] was 10 to 20 nM. For the same substance, the Pore lifetime [2] was “hundreds of milliseconds; also recorded: less than one second”, the “Conductance, open state O1 (3-mer)” value [2, 3] was 50 ± 25 pS and the “Conductance, open state O2 (4-mer)” value [2, 3] was 510 ± 30 pS. For the same substance, the “Conductance, open state O3 (5-mer)” value [2, 3] was 1645 ± 200 pS, the “Conductance, open state O4 (6-mer)” value [2, 3] was 3125 ± 305 pS and the “Conductance, open state O5 (7-mer)” value [2, 3] was 4630 ± — pS. The “Conductance, open state O6 (8-mer)” value [2, 3] was 6600 ± — pS and the Pore-forming activity ([2]; total peptide concentration of 5 nM, +180 mV) was “little to no pore formation”.
